We go through 14 molecules from patent publication US9138436B2, “Inhibitors of Bruton's tyrosine kinase” (PHARMACYCLICS LLC, priority 2011, dated 2015).

As usually defined, the IC50 is the point on the concentration scale where inhibition reaches its midpoint. Lower therefore signals greater potency in that assay.

This test concerns the target Btk (Homo sapiens, UniProt Q06187). Briefly: Btk in vitro inhibitory activity, acellular kinase assay (TR-FRET). The format is biochemical. The method, then:
Btk kinase activity is determined using a time-resolved fluorescence resonance energy transfer (TR-FRET) methodology. Measurements are performed in a reaction volume of 50 μL using 96-well assay plates. Kinase enzyme, inhibitor, ATP (at the Km for the kinase), and 1 μM peptide substrate (Biotin-AVLESEEELYSSARQ-NH2) are incubated in a reaction buffer composed of 20 mM Tris, 50 mM NaCl, MgCl2 (5-25 mM depending on the kinase), MnCl2 (0-10 mM), 1 mM DTT, 0.1 mM EDTA, 0.01% bovine serum albumin, 0.005% Tween-20, and 10% DMSO at pH 7.4 for one hour. The reaction is quenched by the addition of 1.2 equivalents of EDTA (relative to divalent cation) in 25 μL of 1× Lance buffer (Perkin-Elmer). Streptavidin-APC (Perkin-Elmer) and Eu-labeled p-Tyr100 antibody (Perkin-Elmer) in 1× Lance buffer are added in a 25 μL volume to give final concentrations of 100 nM and 2.5 nM, respectively, and the mixture is allowed to incubate for one hour. The TR-FRET signal is measured on a multimode plate reader with an excitation wavelength (λEx) of 330 nm and detection wavelengths (λEm) of 615 and 665 nm. Activity is determined by the ratio of the fluorescence at 665 nm to that at 615 nm. For each compound, enzyme activity is measured at various concentrations of compound. Negative control reactions are performed in the absence of inhibitor in replicates of six, and two no-enzyme controls were used to determine baseline fluorescence levels. Inhibition constants, Ki(app), are obtained using the program BatchKi (Kuzmic et al. (2000), Anal. Biochem. 286:45-50). IC50s are obtained according to the equation: IC50={Ki(app)/(1+[ATP]/Km^ATP)}+[E]total/2;
For all kinases, [ATP]=Km^ATP, [Btk]total=0.5 nM and [Lck]total=6 nM.

Chain of Btk (Q06187 whole entry): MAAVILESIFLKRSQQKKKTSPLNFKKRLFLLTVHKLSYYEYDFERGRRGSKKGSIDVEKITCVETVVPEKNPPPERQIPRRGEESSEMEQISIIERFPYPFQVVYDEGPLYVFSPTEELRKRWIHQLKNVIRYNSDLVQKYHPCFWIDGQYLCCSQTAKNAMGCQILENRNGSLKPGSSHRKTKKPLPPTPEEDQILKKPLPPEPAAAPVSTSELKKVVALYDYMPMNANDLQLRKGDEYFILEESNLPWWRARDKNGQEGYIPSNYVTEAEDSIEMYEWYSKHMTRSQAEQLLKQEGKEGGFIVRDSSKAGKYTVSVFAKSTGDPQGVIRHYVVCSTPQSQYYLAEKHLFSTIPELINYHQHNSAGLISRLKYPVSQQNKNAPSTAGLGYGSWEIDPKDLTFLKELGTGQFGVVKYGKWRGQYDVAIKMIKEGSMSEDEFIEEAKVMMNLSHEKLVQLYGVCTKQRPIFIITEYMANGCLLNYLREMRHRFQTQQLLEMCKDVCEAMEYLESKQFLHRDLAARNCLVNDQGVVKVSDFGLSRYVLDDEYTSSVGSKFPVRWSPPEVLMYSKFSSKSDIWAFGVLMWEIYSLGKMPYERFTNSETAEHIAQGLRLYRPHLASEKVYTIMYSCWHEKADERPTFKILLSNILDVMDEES

Molecule `CCN(C/C=C/C(=O)N1CCC[C@@H](n2nc(-c3ccc(Oc4ccccc4)cc3)c3c(N)ncnc32)C1)C1CC1` [Example 5a, (R,E)-1-(3-(4-amino-3-(4-phenoxyphenyl)-1H-pyrazolo[3,4-d]pyrimidin-1-yl)piperidin-1-yl)-4-(cyclopropyl(ethyl)amino)but-2-en-1-one] gave an IC50 of less than 100 nM. In the case of `Nc1ncnc2c1c(-c1ccc(Oc3ccccc3)cc1)nn2[C@@H]1CCN(C(=O)/C=C/CNC2CCCCC2)C1` [Example 2x, (R,E)-1-(3-(4-amino-3-(4-phenoxyphenyl)-1H-pyrazolo[3,4-d]pyrimidin-1-yl)pyrrolidin-1-yl)-4-(cyclohexylamino)but-2-en-1-one] it was less than 100 nM. The figure for `CN(C/C=C/C(=O)N1CCC[C@@H](n2nc(-c3ccc(Oc4ccccc4)cc3)c3c(N)ncnc32)C1)c1ccccn1` [Example 1t, (R,E)-1-(3-(4-amino-3-(4-phenoxyphenyl)-1H-pyrazolo[3,4-d]pyrimidin-1-yl)piperidin-1-yl)-4-(methyl(pyridin-2-yl)amino)but-2-en-1-one] is less than 100 nM; for `CN(C/C=C/C(=O)N1CC(n2nc(-c3ccc(Oc4ccccc4)cc3)c3c(N)ncnc32)C1)C1CC1` [Example 5c, (E)-1-(3-(4-amino-3-(4-phenoxyphenyl)-1H-pyrazolo[3,4-d]pyrimidin-1-yl)azetidin-1-yl)-4-(cyclopropyl(methyl)amino)but-2-en-1-one] it is less than 100 nM; for `COCCN(C/C=C/C(=O)N1CCC[C@@H](n2nc(-c3ccc(Oc4ccccc4)cc3)c3c(N)ncnc32)C1)C1CC1` [Example 2s, (R,E)-1-(3-(4-amino-3-(4-phenoxyphenyl)-1H-pyrazolo[3,4-d]pyrimidin-1-yl)piperidin-1-yl)-4-(cyclopropyl(2-methoxyethyl)amino)but-2-en-1-one] it is less than 100 nM. Regarding `Nc1ncnc2c1c(-c1ccc(Oc3ccccc3)cc1)nn2[C@@H]1CCCN(C(=O)/C=C/CN[C@@H]2CCOC2)C1` [Example 2i, (E)-1-((R)-3-(4-amino-3-(4-phenoxyphenyl)-1H-pyrazolo[3,4-d]pyrimidin-1-yl)piperidin-1-yl)-4-((R)-tetrahydrofuran-3-ylamino)but-2-en-1-one], the half-maximal inhibitory concentration (IC50) is less than 100 nM. `CN(C/C=C/C(=O)N1CC[C@@H](n2nc(-c3ccc(Oc4ccccc4)cc3)c3c(N)ncnc32)C1)C1CC1` [Example 2u, (R,E)-1-(3-(4-amino-3-(4-phenoxyphenyl)-1H-pyrazolo[3,4-d]pyrimidin-1-yl)pyrrolidin-1-yl)-4-(cyclopropyl(methyl)amino)but-2-en-1-one] had an IC50 of less than 100 nM. In the case of `CN(C/C=C/C(=O)N1CC[C@@H](n2nc(-c3ccc(Oc4ccccc4)cc3)c3c(N)ncnc32)C1)[C@H]1CCOC1` [Example 2d, (E)-1-((R)-3-(4-amino-3-(4-phenoxyphenyl)-1H-pyrazolo[3,4-d]pyrimidin-1-yl)pyrrolidin-1-yl)-4-(methyl((S)-tetrahydrofuran-3-yl)amino)but-2-en-1-one] it was less than 100 nM; in that of `Nc1ncnc2c1c(-c1ccc(Oc3ccccc3)cc1)nn2[C@@H]1CCCN(C(=O)/C=C/CNC2CCCC2)C1` [Example 2aj, (R,E)-1-(3-(4-amino-3-(4-phenoxyphenyl)-1H-pyrazolo[3,4-d]pyrimidin-1-yl)piperidin-1-yl)-4-(cyclopentylamino)but-2-en-1-one], less than 100 nM; in that of `CN(C/C=C/C(=O)N1CCC[C@@H](n2nc(-c3ccc(Oc4ccccc4)cc3)c3c(N)ncnc32)C1)C1CCCC1` [Example 2ai, (R,E)-1-(3-(4-amino-3-(4-phenoxyphenyl)-1H-pyrazolo[3,4-d]pyrimidin-1-yl)piperidin-1-yl)-4-(cyclopentyl(methyl)amino)but-2-en-1-one], less than 100 nM. In the case of `CN(C(=O)/C=C/CN(C)C1CC1)c1cccc(-n2nc(-c3ccc(Oc4ccccc4)cc3)c3c(N)ncnc32)c1` [Example 7d, (E)-N-(3-(4-amino-3-(4-phenoxyphenyl)-1H-pyrazolo[3,4-d]pyrimidin-1-yl)phenyl)-4-(cyclopropyl(methyl)amino)-N-methylbut-2-enamide] it was less than 100 nM; in that of `CN(C/C=C/C(=O)N1CCC[C@@H](n2nc(-c3ccc(Oc4ccccc4)cc3)c3c(N)ncnc32)C1)C1CCOCC1` [Example 1q, (R,E)-1-(3-(4-amino-3-(4-phenoxyphenyl)-1H-pyrazolo[3,4-d]pyrimidin-1-yl)piperidin-1-yl)-4-(methyl(tetrahydro-2H-pyran-4-yl)amino)but-2-en-1-one], less than 100 nM; in that of `CN(C(=O)/C=C/CN(C)C1CCC1)c1cccc(-n2nc(-c3ccc(Oc4ccccc4)cc3)c3c(N)ncnc32)c1` [Example 7e, (E)-N-(3-(4-amino-3-(4-phenoxyphenyl)-1H-pyrazolo[3,4-d]pyrimidin-1-yl)phenyl)-4-(cyclobutyl(methyl)amino)-N-methylbut-2-enamide], less than 100 nM. In the case of `Nc1ncnc2c1c(-c1ccc(Oc3ccccc3)cc1)nn2[C@@H]1CCN(C(=O)/C=C/CNc2ccccn2)C1` [Example 1s, (R,E)-1-(3-(4-amino-3-(4-phenoxyphenyl)-1H-pyrazolo[3,4-d]pyrimidin-1-yl)pyrrolidin-1-yl)-4-(pyridin-2-ylamino)but-2-en-1-one] it was less than 100 nM.
